Reference: ChEMBL document CHEMBL3885861, “Open TG-GATES”

Species on record: Rattus norvegicus
Experiment: Open TG-GATES - Regimen: Daily Repeat
Assay type: toxicity, organism-based, Sprague-Dawley
Parameters: regimen Daily Repeat, gender Male, age 6 weeks
Conditions: in vivo, po, 450 mg/kg, route gavage, dose level High; for Eos / Fbg / Hb / Ht / Lym / MCH / MCHC / MCV / Mono / Neu / PT / Plat / RBC / Ret / WBC / APTT / Bas: tissue Blood; for KIDNEY_L / KIDNEY_R / KIDNEY_TOTAL: tissue Kidney; for ALP / ALT / AST / BUN / CRE / Ca / Cl / DBIL / GLC / IP / K / LDH / Na / PL / RALB / TBIL / TC / TG / TP / gamma-GTP: tissue Plasma

## CC(=O)Oc1ccccc1C(=O)O [ASPIRIN]
72 h, time 3 day
  Eos: 0.4%
  Fbg: 212.4 mg/dL
  Hb: 13.5 g/dL
  Ht: 39.3%
  Lym: 81.4%
  MCH: 21.4 pg
  MCHC: 34.2%
  MCV: 62.5 fL
  Mono: 2%
  Neu: 14.8%
  PT: 14.1 s
  Plat: 122.2 x10_4/uL
  RBC: 630 x10_4/ul
  Ret: 4.7%
  WBC: 126.2 x10_2/uL
  KIDNEY_L: 1.1 g
  KIDNEY_R: 1.1 g
  KIDNEY_TOTAL: 2.2 g
  ALP: 880.2 IU/L
  ALT: 47 IU/L
  AST: 82.4 IU/L
  BUN: 14.8 mg/dL
  CRE: 0.4 mg/dL
  Ca: 11.2 mg/dL
  Cl: 103 meq/L
  DBIL: 0.1 mg/dL
  GLC: 188 mg/dL
  IP: 7.1 mg/dL
  K: 3.7 meq/L
  LDH: 233.4 IU/L
  Na: 142.2 meq/L
  PL: 147.2 mg/dL
  RALB: 3.3 g/dL
  TBIL: 0.2 mg/dL
  TC: 62.2 mg/dL
  TG: 187 mg/dL
  TP: 5.5 g/dL
  gamma-GTP: 1.4 IU/L
[…], time 7 day
  TERMINAL_BW: 257.1 g
  APTT: 22.6 s
  Bas: 0%
  Eos: 0.8%
  Fbg: 210.2 mg/dL
  Hb: 13.3 g/dL
  Ht: 39.6%
  Lym: 81.6%
  MCH: 21.2 pg
  MCHC: 33.7%
  MCV: 63 fL
  Mono: 2.2%
  Neu: 14%
  PT: 13.6 s
  Plat: 111.3 x10_4/uL
  RBC: 629.4 x10_4/ul
  Ret: 7.9%
  WBC: 159.1 x10_2/uL
  KIDNEY_L: 1.1 g
  KIDNEY_R: 1.1 g
  KIDNEY_TOTAL: 2.3 g
  ALP: 1005.2 IU/L
  ALT: 51.6 IU/L
  AST: 102.4 IU/L
  BUN: 16.8 mg/dL
  CRE: 0.5 mg/dL
  Ca: 11 mg/dL
  Cl: 102.4 meq/L
  DBIL: 0.1 mg/dL
  GLC: 207.4 mg/dL
  IP: 7.4 mg/dL
  K: 4.1 meq/L
  LDH: 248.2 IU/L
  Na: 142 meq/L
  PL: 158.6 mg/dL
  RALB: 3.4 g/dL
  TBIL: 0.2 mg/dL
  TC: 66.8 mg/dL
  TG: 182.4 mg/dL
  TP: 5.3 g/dL
  gamma-GTP: 1.2 IU/L
[…], time 14 day
  TERMINAL_BW: 301.6 g
  APTT: 22.1 s
  Bas: 0%
  Eos: 1%
  Fbg: 210 mg/dL
  Hb: 14.5 g/dL
  Ht: 41.5%
  Lym: 78.6%
  MCH: 21.3 pg
  MCHC: 34.9%
  MCV: 61.1 fL
  Mono: 2.6%
  Neu: 16.4%
  PT: 13 s
  Plat: 125.9 x10_4/uL
  RBC: 679.8 x10_4/ul
  Ret: 4.7%
  WBC: 146.8 x10_2/uL
  KIDNEY_L: 1.3 g
  KIDNEY_R: 1.3 g
  KIDNEY_TOTAL: 2.5 g
  ALP: 871 IU/L
  ALT: 46.2 IU/L
  AST: 92.8 IU/L
  BUN: 16.4 mg/dL
  CRE: 0.5 mg/dL
  Ca: 10.8 mg/dL
  Cl: 101.4 meq/L
  DBIL: 0.1 mg/dL
  GLC: 175.8 mg/dL
  IP: 7.6 mg/dL
  K: 4.4 meq/L
  LDH: 312 IU/L
  Na: 141.2 meq/L
  PL: 170.6 mg/dL
  RALB: 3.3 g/dL
  TBIL: 0.2 mg/dL
  TC: 65.6 mg/dL
  TG: 250.6 mg/dL
  TP: 5.4 g/dL
  gamma-GTP: 0.8 IU/L
[…], time 28 day
  TERMINAL_BW: 356.2 g
  APTT: 23.9 s
  Bas: 0%
  Eos: 1%
  Fbg: 194.2 mg/dL
  Hb: 14.9 g/dL
  Ht: 43.2%
  Lym: 76.6%
  MCH: 20.1 pg
  MCHC: 34.5%
  MCV: 58.2 fL
  Mono: 2.6%
  Neu: 18.8%
  PT: 14 s
  Plat: 90.2 x10_4/uL
  RBC: 746.6 x10_4/ul
  Ret: 3.3%
  WBC: 115.2 x10_2/uL
  KIDNEY_L: 1.3 g
  KIDNEY_R: 1.4 g
  KIDNEY_TOTAL: 2.7 g
  ALP: 771.8 IU/L
  ALT: 40.6 IU/L
  AST: 85.6 IU/L
  BUN: 18.4 mg/dL
  CRE: 0.5 mg/dL
  Ca: 10.3 mg/dL
  Cl: 102.6 meq/L
  DBIL: 0.094 mg/dL
  GLC: 204.4 mg/dL
  IP: 6.5 mg/dL
  K: 4 meq/L
  LDH: 179 IU/L
  Na: 141.8 meq/L
  PL: 146.6 mg/dL
  RALB: 3.4 g/dL
  TBIL: 0.2 mg/dL
  TC: 58.2 mg/dL
  TG: 172.4 mg/dL
  TP: 5.2 g/dL
  gamma-GTP: 1 IU/L
